Experimental data from PubChem BioAssay (NCI).
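Compound exposure: 48 hours, 5 concentrations, 96-well plates. At the GI50, growth is halved. TGI: concentration producing complete growth inhibition.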

Experiments:
Assay in all cases: NCI anticancer screen, dose series, 48 h
786-0 renal = system: 786-0 renal
A498 renal = system: A498 renal
A549 NSCLC = system: A549 NSCLC
ACHN renal = system: ACHN renal
BT-549 breast = system: BT-549 breast
CAKI-1 renal = system: CAKI-1 renal
CCRF-CEM leukemia = system: CCRF-CEM leukemia
COLO 205 colon = system: COLO 205 colon
DU-145 prostate = system: DU-145 prostate
EKVX NSCLC = system: EKVX NSCLC
HCC-2998 colon = system: HCC-2998 colon
HCT-116 colon = system: HCT-116 colon
HCT-15 colon = system: HCT-15 colon
HL-60(TB) leukemia = system: HL-60(TB) leukemia
HOP-62 NSCLC = system: HOP-62 NSCLC
HOP-92 NSCLC = system: HOP-92 NSCLC
HS 578T breast = system: HS 578T breast
HT29 colon = system: HT29 colon
IGROV1 ovarian = system: IGROV1 ovarian
K-562 leukemia = system: K-562 leukemia
KM12 colon = system: KM12 colon
LOX IMVI melanoma = system: LOX IMVI melanoma
M14 melanoma = system: M14 melanoma
MALME-3M melanoma = system: MALME-3M melanoma
MCF7 breast = system: MCF7 breast
MDA-MB-231 breast = system: MDA-MB-231 breast
MDA-MB-435 = system: MDA-MB-435
MDA-MB-468 breast = system: MDA-MB-468 breast
MOLT-4 leukemia = system: MOLT-4 leukemia
NCI-H226 lung = system: NCI-H226 lung
NCI-H23 lung = system: NCI-H23 lung
NCI-H460 lung = system: NCI-H460 lung
NCI-H522 lung = system: NCI-H522 lung
NCI/ADR-RES ovarian = system: NCI/ADR-RES ovarian
OVCAR-3 ovarian = system: OVCAR-3 ovarian
OVCAR-4 ovarian = system: OVCAR-4 ovarian
OVCAR-5 ovarian = system: OVCAR-5 ovarian
OVCAR-8 ovarian = system: OVCAR-8 ovarian
PC-3 prostate = system: PC-3 prostate
RPMI-8226 leukemia = system: RPMI-8226 leukemia
RXF 393 renal = system: RXF 393 renal
SF-268 CNS = system: SF-268 CNS
SF-295 CNS = system: SF-295 CNS
SF-539 CNS = system: SF-539 CNS
SK-MEL-2 melanoma = system: SK-MEL-2 melanoma
SK-MEL-28 melanoma = system: SK-MEL-28 melanoma
SK-MEL-5 melanoma = system: SK-MEL-5 melanoma
SK-OV-3 ovarian = system: SK-OV-3 ovarian
SN12C renal = system: SN12C renal
SNB-19 CNS = system: SNB-19 CNS
SNB-75 CNS = system: SNB-75 CNS
SW-620 colon = system: SW-620 colon
T-47D breast = system: T-47D breast
TK-10 renal = system: TK-10 renal
U251 CNS = system: U251 CNS
UACC-257 melanoma = system: UACC-257 melanoma
UACC-62 melanoma = system: UACC-62 melanoma
UO-31 renal = system: UO-31 renal

CC(C)c1sc(NC(=O)c2cc(NC(=O)c3cc(NC(=O)c4cscn4)cn3C)cn2C)nc1C(=O)NCCCN(C)C
GI50 (786-0 renal): 6.16 µM
TGI (786-0 renal): 15.5 µM
GI50 (A498 renal): > 28.3 µM
TGI (A498 renal): > 28.3 µM
GI50 (A549 NSCLC): 9.72 µM
TGI (A549 NSCLC): > 28.3 µM
GI50 (ACHN renal): > 28.3 µM
TGI (ACHN renal): > 28.3 µM
GI50 (BT-549 breast): 0.994 µM
TGI (BT-549 breast): 4.45 µM
GI50 (CAKI-1 renal): 17.5 µM
TGI (CAKI-1 renal): > 28.3 µM
GI50 (CCRF-CEM leukemia): 2.14 µM
TGI (CCRF-CEM leukemia): > 28.3 µM
GI50 (COLO 205 colon): 1.86 µM
TGI (COLO 205 colon): 5.68 µM
GI50 (DU-145 prostate): 5.49 µM
TGI (DU-145 prostate): > 28.3 µM
GI50 (EKVX NSCLC): 5.84 µM
TGI (EKVX NSCLC): > 28.3 µM
GI50 (HCC-2998 colon): 3.86 µM
TGI (HCC-2998 colon): 7.92 µM
GI50 (HCT-116 colon): 2.29 µM
TGI (HCT-116 colon): 8.44 µM
GI50 (HCT-15 colon): > 28.3 µM
TGI (HCT-15 colon): > 28.3 µM
GI50 (HL-60(TB) leukemia): 6.12 µM
TGI (HL-60(TB) leukemia): 18.8 µM
GI50 (HOP-62 NSCLC): 6.43 µM
TGI (HOP-62 NSCLC): 19.6 µM
GI50 (HOP-92 NSCLC): 0.846 µM
TGI (HOP-92 NSCLC): 9.01 µM
GI50 (HS 578T breast): 4.55 µM
TGI (HS 578T breast): 26.4 µM
GI50 (HT29 colon): 5.35 µM
TGI (HT29 colon): 10.9 µM
GI50 (IGROV1 ovarian): 4.48 µM
TGI (IGROV1 ovarian): 12.3 µM
GI50 (K-562 leukemia): 1.85 µM
TGI (K-562 leukemia): > 28.3 µM
GI50 (KM12 colon): 11.3 µM
TGI (KM12 colon): > 28.3 µM
GI50 (LOX IMVI melanoma): 0.739 µM
TGI (LOX IMVI melanoma): 2.21 µM
GI50 (M14 melanoma): 5.25 µM
TGI (M14 melanoma): 14.2 µM
GI50 (MALME-3M melanoma): 3.78 µM
TGI (MALME-3M melanoma): 8.26 µM
GI50 (MCF7 breast): 3.58 µM
TGI (MCF7 breast): 10.4 µM
GI50 (MDA-MB-231 breast): 5.63 µM
TGI (MDA-MB-231 breast): 21.8 µM
GI50 (MDA-MB-435): 3.86 µM
TGI (MDA-MB-435): 19.8 µM
GI50 (MDA-MB-468 breast): 1.03 µM
TGI (MDA-MB-468 breast): 4.68 µM
GI50 (MOLT-4 leukemia): 9.35 µM
TGI (MOLT-4 leukemia): > 28.3 µM
GI50 (NCI-H226 lung): 3.22 µM
TGI (NCI-H226 lung): > 28.3 µM
GI50 (NCI-H23 lung): 4.51 µM
TGI (NCI-H23 lung): 10.4 µM
GI50 (NCI-H460 lung): 7.6 µM
TGI (NCI-H460 lung): 22 µM
GI50 (NCI-H522 lung): 1.08 µM
TGI (NCI-H522 lung): 5.58 µM
GI50 (NCI/ADR-RES ovarian): > 28.3 µM
TGI (NCI/ADR-RES ovarian): > 28.3 µM
GI50 (OVCAR-3 ovarian): 2.03 µM
TGI (OVCAR-3 ovarian): > 28.3 µM
GI50 (OVCAR-4 ovarian): 5.34 µM
TGI (OVCAR-4 ovarian): > 28.3 µM
GI50 (OVCAR-5 ovarian): 6.29 µM
TGI (OVCAR-5 ovarian): 21 µM
GI50 (OVCAR-8 ovarian): 7.86 µM
TGI (OVCAR-8 ovarian): 26 µM
GI50 (PC-3 prostate): 1.25 µM
TGI (PC-3 prostate): 24.8 µM
GI50 (RPMI-8226 leukemia): 28.1 µM
TGI (RPMI-8226 leukemia): > 28.3 µM
GI50 (RXF 393 renal): 1.84 µM
TGI (RXF 393 renal): 6.99 µM
GI50 (SF-268 CNS): 2.63 µM
TGI (SF-268 CNS): > 28.3 µM
GI50 (SF-295 CNS): 9.83 µM
TGI (SF-295 CNS): > 28.3 µM
GI50 (SF-539 CNS): 1.08 µM
TGI (SF-539 CNS): 4.51 µM
GI50 (SK-MEL-2 melanoma): 3.75 µM
TGI (SK-MEL-2 melanoma): 7.88 µM
GI50 (SK-MEL-28 melanoma): 3.17 µM
TGI (SK-MEL-28 melanoma): 11.9 µM
GI50 (SK-MEL-5 melanoma): 5.35 µM
TGI (SK-MEL-5 melanoma): 11.1 µM
GI50 (SK-OV-3 ovarian): 1.37 µM
TGI (SK-OV-3 ovarian): 16.3 µM
GI50 (SN12C renal): 5.89 µM
TGI (SN12C renal): > 28.3 µM
GI50 (SNB-19 CNS): 0.838 µM
TGI (SNB-19 CNS): > 28.3 µM
GI50 (SNB-75 CNS): 0.829 µM
TGI (SNB-75 CNS): 11.7 µM
GI50 (SW-620 colon): 4.21 µM
TGI (SW-620 colon): 16.3 µM
GI50 (T-47D breast): 1.07 µM
TGI (T-47D breast): 12.5 µM
GI50 (TK-10 renal): > 28.3 µM
TGI (TK-10 renal): > 28.3 µM
GI50 (U251 CNS): 1.14 µM
TGI (U251 CNS): > 28.3 µM
GI50 (UACC-257 melanoma): 5.78 µM
TGI (UACC-257 melanoma): 16.8 µM
GI50 (UACC-62 melanoma): 3.57 µM
TGI (UACC-62 melanoma): 7.22 µM
GI50 (UO-31 renal): > 28.3 µM
TGI (UO-31 renal): > 28.3 µM
